Test results taken from US8575135B2 (Gilead Sciences, Inc., priority 2011, dated 2013).
Where two headings read alike, the source gives them in different places.

Columns and labels:
Assay in all cases: microbe, parasite or virus in culture
[1] = tested on: NS5A chimeric genotype 2a JFH-1 replicon with genotype 2b MD2b-1 strain NS5A gene (M31 present); type: cell-based, HCV; details: Hepatitis C virus
Description: (§1) Evaluation of Cell-Based Anti-HCV Activity:
(§2) Antiviral potency (EC50) was determined using a Renilla luciferase (RLuc)-based HCV replicon reporter assay. […] To perform the assay for genotype 2a (with M31 present in NS5A) or 2b, NS5A chimeric genotype 2a JFH-1 replicons that encodes a RLuc-Neo reporter and either genotype 2a J6 strain NS5A gene or genotype 2b MD2b-1 strain NS5A gene (both with M31 present) respectively, were either transiently transfected (t) into Huh-Lunet cells or were established as stably replicating replicon cells (s) is provided. Either cells were dispensed into 384-well plates for EC50 assays. To perform the assay for genotype 3 and 4, NS5A chimeric genotype 1b Con1 replicons that encodes a Pi-RLuc reporter and either genotype 3a S52 strain NS5A gene or genotype 4a ED43 strain NS5A gene respectively, were transiently transfected (t) into Huh-Lunet cells, which were subsequently dispensed into 384-well plates. Compounds were dissolved in DMSO at a concentration of 10 mM and diluted in DMSO either manually or using an automated pipeting instrument. Serially 3-fold diluted compounds were either manually mixed with cell culture media and added to the seeded cells or directly added to the cells using an automated instrument. […] 72 hours later, cells were lysed and Renilla luciferase activity quantified as recommended by the manufacturer (Promega-Madison, Wis.). Non-linear regression was performed to calculate EC50 values.

[2] = tested on: NS5A chimeric genotype 2a JFH-1 replicon with genotype 2a J6 strain NS5A gene (M31 present); type: cell-based, HCV; details: Hepatitis C virus
Description: as §1, §2

[3] = tested on: stable HCV 1a RLuc replicon cells (genotype 1a H77 replicon); type: cell-based; details: Hepatitis C virus
Description: as §1, §2

[4] = tested on: stable HCV 2a JFH-1 Rluc replicon cells (L31 present in NS5A); type: cell-based; details: Hepatitis C virus
[5] = tested on: NS5A chimeric genotype 1b Con1 replicon with genotype 4a ED43 strain NS5A gene; type: cell-based, HCV; details: Hepatitis C virus
[6] = tested on: NS5A chimeric genotype 1b Con1 replicon with genotype 3a S52 strain NS5A gene; type: cell-based, HCV; details: Hepatitis C virus, read-out: 3a (nM)
Description: as §1, §2

Compound | EC50 ([1]; read-out: 2b) [nM] | EC50 ([1]; read-out: 2b (s) (nM)) [nM] | EC50 ([1]; read-out: 2b (t) (nM)) [nM] | EC50 ([2]; read-out: 2a J6) [nM] | EC50 ([2]; read-out: 2a Jb (t) (nM)) [nM] | EC50 ([3]; read-out: 1a) [nM] | EC50 ([3]; read-out: 1a (nM)) [nM] | EC50 ([4]; read-out: 2a JFH) [nM] | EC50 ([4]; read-out: 2a JFH (nM)) [nM] | EC50 ([5]; read-out: 4a) [nM] | EC50 ([5]; read-out: 4a (s) (nM)) [nM] | EC50 ([2]; read-out: 2a J6 (s) (nM)) [nM] | EC50 ([5]; read-out: 4a (t) (nM)) [nM] | EC50 [6] [nM]
COC(=O)N[C@H](C(=O)N1[C@@H](C)CC[C@H]1c1ncc(-c2ccc3c(c2)COc2cc4c(ccc5nc([C@@H]6CCCN6C(=O)[C@@H](NC(=O)OC)C6CCOCC6)[nH]c54)cc2-3)[nH]1)C(C)C [Compound 602] | < 1 | 0.036 | 0.036 | < 1 | 0.053 | < 1 | 0.025 | < 1 | 0.01 | < 1 | 0.013 |  |  | 
CC[C@@H](C)[C@H](NC(=O)OC)C(=O)N1C[C@@H](COC)C[C@H]1c1nc2ccc3cc4c(cc3c2[nH]1)OCc1cc(-c2cnc([C@@H]3CC[C@H](C)N3C(=O)[C@@H](NC(=O)OC)[C@H](C)CC)[nH]2)ccc1-4 [Compound 643] | < 1 |  | 0.607 | < 1 | 0.206 | < 1 | 0.015 | < 1 | 0.013 |  |  |  |  | 
COC[C@H]1C[C@@H](c2nc3ccc4cc5c(cc4c3[nH]2)OCc2cc(-c3ccc4nc([C@@H]6CCCN6C(=O)[C@@H](NC(=O)OC)C(C)C)[nH]c4c3)ccc2-5)N(C(=O)[C@H](NC(=O)OC)c2ccccc2)C1 [Example MS] | > 5 | 9.56 |  | > 5 |  | < 1 | 0.008 | < 1 | 0.005 | < 1 | 0.02 | 15.6 | 0.014 | 
COC(=O)N[C@H](C(=O)N1[C@@H](C)CC[C@H]1c1ncc(-c2ccc3c(c2)COc2cc4c(ccc5nc([C@@H]6CCCN6C(=O)[C@H](N)c6ccccc6)[nH]c54)cc2-3)[nH]1)C(C)C [Example NR, Methyl [(2S)-1-{(2S,5S)-2-[5-(2-{(2S)-1-[(2R)-2-amino-2-phenylacetyl]pyrrolidin-2-yl}-1,11-dihydroisochromeno[4′,3′:6,7]naphtho[1,2-d]imidazol-9-yl)-1H-imidazol-2-yl]-5-methylpyrrolidin-1-yl}-3-methyl-1-oxobutan-2-yl]carbamate] | < 1 | 0.017 | 0.017 | < 1 | 0.118 | < 1 | 0.026 | < 1 | 0.006 | < 1 | 0.007 |  |  | 
CC[C@H](C)[C@H](NC(=O)OC)C(=O)N1C[C@@H](COC)C[C@H]1c1ncc(-c2ccc3c(c2)COc2cc4c(ccc5nc([C@@H]6CC[C@H](C)N6C(=O)[C@@H](NC(=O)OC)C(C)C)[nH]c54)cc2-3)[nH]1 [Example OF, Methyl {(2S,3S)-1-[(2S,4S)-2-(5-{2-[(2S,5S)-1-{(2S)-2-[(methoxycarbonyl)amino]-3-methylbutanoyl}-5-methylpyrrolidin-2-yl]-1,11-dihydroisochromeno[4′,3′:6,7]naphtho[1,2-d]imidazol-9-yl}-1H-imidazol-2-yl)-4-(methoxymethyl)pyrrolidin-1-yl]-3-methyl-1-oxopentan-2-yl}carbamate] | < 1 |  | 0.196 | < 1 | 0.445 | < 1 | 0.01 | < 1 | 0.008 |  |  |  |  | 
CC[C@@H](C)[C@H](NC(=O)OC)C(=O)N1C[C@@H](COC)C[C@H]1c1ncc(-c2ccc3c(c2)COc2cc4c(ccc5nc([C@@H]6CC[C@H](C)N6C(=O)[C@@H](NC(=O)OC)C(C)C)[nH]c54)cc2-3)[nH]1 [Example OG, Methyl {(2S)-1-[(2S,5S)-2-(9-{2-[(2S,4S)-1-[N-(methoxycarbonyl)-L-alloisoleucyl]-4-(methoxymethyl)pyrrolidin-2-yl]-1H-imidazol-5-yl}-1,11-dihydroisochromeno[4′,3′:6,7]naphtho[1,2-d]imidazol-2-yl)-5-methylpyrrolidin-1-yl]-3-methyl-1-oxobutan-2-yl}carbamate] | < 1 |  | 0.437 | < 1 | 0.601 | < 1 | 0.009 | < 1 | 0.008 |  |  |  |  | 
COC[C@H]1C[C@@H](c2ncc(-c3ccc4c(c3)COc3cc5c(ccc6nc([C@@H]7CCCN7C(=O)[C@@H](NC(=O)OC)C(C)C)[nH]c65)cc3-4)[nH]2)N(C(=O)[C@H](N)c2ccccc2)C1 [Example OL, Methyl {(2S)-1-[(2S)-2-(9-{2-[(2S,4S)-[(2R)-2-amino-2-phenylacetyl]-4-(methoxymethyl)pyrrolidin-2-yl]-1H-imidazol-5-yl}-1,11-dihydroisochromeno[4′,3′:6,7]naphtho[1,2-d]imidazol-2-yl)pyrrolidin-1-yl]-3-methyl-1-oxobutan-2-yl}carbamate] | < 1 | 0.052 | 0.052 | < 1 | 0.07 | < 1 | 0.047 | < 1 | 0.012 |  |  |  |  | 
CC[C@H](C)[C@H](NC(=O)OC)C(=O)N1[C@@H](C)CC[C@H]1c1ncc(-c2ccc3c(c2)COc2cc4c(ccc5nc([C@@H]6C[C@H](COC)CN6C(=O)[C@@H](NC(=O)OC)C(C)C)[nH]c54)cc2-3)[nH]1 [Example OX, Methyl {(2S)-1-[(2S,4S)-2-(9-{2-[(2S,5S)-1-{(2S,3S)-2-[(methoxycarbonyl)amino]-3-methylpentanoyl}-5-methylpyrrolidin-2-yl]-1H-imidazol-5-yl}-1,11-dihydroisochromeno[4′,3′:6,7]naphtho[1,2-d]imidazol-2-yl)-4-(methoxymethyl)pyrrolidin-1-yl]-3-methyl-1-oxobutan-2-yl}carbamate] | < 1 |  | 0.107 | < 1 | 0.113 | < 1 | 0.007 | < 1 | 0.006 |  |  |  |  | 
COC(=O)N[C@H](C(=O)N1C[C@@H](COC(F)F)C[C@H]1c1nc2ccc3cc4c(cc3c2[nH]1)OCc1cc(-c2cnc([C@@H]3CC[C@H](C)N3C(=O)[C@@H](NC(=O)OC)C(C)C)[nH]2)ccc1-4)C(C)C [Example PS, methyl {(2S)-1-[(2S,5S)-2-(5-{2-[(2S,4S)-4-[(difluoromethoxy)methyl]-1-{(2S)-2-[(methoxycarbonyl)amino]-3-methylbutanoyl}pyrrolidin-2-yl]-1,11-dihydroisochromeno[4′,3′:6,7]naphtho[1,2-d]imidazol-9-yl}-1H-imidazol-2-yl)-5-methylpyrrolidin-1-yl]-3-methyl-1-oxobutan-2-yl}carbamate] | < 1 |  | 0.113 | < 1 | 0.077 | < 1 | 0.005 | < 1 | 0.004 |  |  |  |  | 44.4
COC(=O)N[C@H](C(=O)N1C[C@@H](COC(F)F)C[C@H]1c1ncc(-c2ccc3c(c2)COc2cc4c(ccc5nc([C@@H]6CC[C@H](C)N6C(=O)[C@@H](NC(=O)OC)C(C)C)[nH]c54)cc2-3)[nH]1)C(C)C [Example PT, methyl {(2S)-1-[(2S,4S)-4-[(difluoromethoxy)methyl]-2-(5-{2-[(2S,5S)-1-{(2S)-2-[(methoxycarbonyl)amino]-3-methylbutanoyl}-5-methylpyrrolidin-2-yl]-1,11-dihydroisochromeno[4′,3′:6,7]naphtho[1,2-d]imidazol-9-yl}-1H-imidazol-2-yl)pyrrolidin-1-yl]-3-methyl-1-oxobutan-2-yl}carbamate] | < 1 |  | 0.182 | < 1 | 0.383 | < 1 | 0.007 | < 1 | 0.007 |  |  |  |  | 
COC[C@H]1C[C@@H](c2ncc(-c3ccc4c(c3)COc3cc5c(ccc6nc([C@@H]7C[C@H](COC(F)F)CN7C(=O)[C@@H](NC(=O)OC)C(C)C)[nH]c65)cc3-4)[nH]2)N(C(=O)[C@@H](NC(=O)OC)C(C)C)C1 [Example PU, methyl {(2S)-1-[(2S,4S)-2-(5-{2-[(2S,4S)-4-[(difluoromethoxy)methyl]-1-{(2S)-2-[(methoxycarbonyl)amino]-3-methylbutanoyl}pyrrolidin-2-yl]-1,11-dihydroisochromeno[4′,3′:6,7]naphtho[1,2-d]imidazol-9-yl}-1H-imidazol-2-yl)-4-(methoxymethyl)pyrrolidin-1-yl]-3-methyl-1-oxobutan-2-yl}carbamate] | < 1 |  | 0.442 | < 1 | 0.068 | < 1 | 0.012 | < 1 | 0.006 |  |  |  |  | 
